Measured values taken from patent publication US9161951B2, “Parenteral nutrition composition containing iron” (priority 2005, dated 2015).

Assays:
[1] = single parenteral nutrition component; cited from earlier work
[2] = in vivo; cited from earlier work
[3] = patients receiving TPN, 87.5-175 mg/week iron i.v., 3 week period; cited from earlier work
[4] = tested on: iron deficiency anemia; settings: 15 mg in PN admixture i.v. over 6 hours every day, 3 months
Description: A patient with a history of bowel resection, secondary to inflammatory bowel disease is currently receiving TPN therapy at home. The patient develops iron deficiency anemia, secondary to ongoing bloody diarrhea and malabsorption of iron. The patient is unable to take iron supplements by mouth due to bloating and diarrhea.

For `O=C([O-])CC(O)(CC(=O)O)C(=O)[O-].[Fe+2]` [ferrous citrate], the “duration of compatibility with amino acid solution” value [1] is listed as 1 days.

In the case of `O=P([O-])([O-])OP(=O)([O-])[O-].[Sn+2].[Sn+2]` [stannous pyrophosphate], the reported adverse effects [2] is listed as “cause hypocalcemia and immediate toxic effects”.

In the case of iron dextran, the “effect on serum iron levels” value [3] is listed as “effectively raised serum iron levels”.

With “soluble ferric pyrophosphate [soluble FePPi]” the “correction of iron deficiency anemia” value [4] was “effectively corrects iron deficiency anemia”.
